Source: patent publication US10365275B2, “Immunologically active polypeptide” (Institute of Arthritis Research, LLC, priority 2013, dated 2019)

How the values were obtained:
Type in all cases: cell-based
human TLR2 = target: T1, human TLR2 (Homo sapiens, UniProt O60603); assay: NF-κB-driven SEAP reporter assay in TLR-transfected HEK293 cells
T1 construct: host or cells: HEK293
Protocol: (§1) PeptideX2 (200 μg/mL) was tested for its effects on human TLR-driven NF-κB activation in HEK293 cell lines transfected with human TLR2, 3, 4, 5, 7, 8 or 9 (InvivoGen, San Diego, Calif.). HEK293 cells (50,000 to 75,000 cells/well) expressing the indicated TLR were plated in wells of a 96-well plate (200 μl total volume) containing either with no additions, PeptideX2 (in 20 μl buffer), or buffer only (20 μl) as a vehicle control. All cells contained a reporter construct having coding sequence for Secreted Embryonic Alkaline Phosphatase (SEAP) under the control of a promoter inducible by the transcription of NF-κB, and were incubated in media containing a detectable SEAP expression indicator (InvivoGen, San Diego, Calif.). After 16-20 hours incubation at 37° C., the optical density of culture supernatants was read at 650 nm on a Molecular Devices SpectraMax™ 340PC absorbance detector.
(§2) The relative potency of PeptideX2 induction of human TLR-mediated NF-κB activation was compared to the effects of known PAMP ligands that have activity as agonists for each of the human TLRs TLR2, TLR3, TLR4, TLR5, TLR7, TLR8 and TLR9, using the NF-κB-driven SEAP reporter assay (InvivoGen, San Diego, Calif.). The known TLR agonists were as follows: for TLR2, heat killed Listeria monocytogenes (HKLM) at 10^8 cells/ml; for TLR3, poly(I:C) at 1 ug/ml; for TLR4, E. coli K12 LPS at 100 ng/ml; for TLR5, S. typhimurium flagellin at 100 ng/ml; for TLR7, CL097 at 1 ug/ml; for TLR8, CL075 at 1 ug/ml; for TLR9, CpG ODN 2006 at 100 ng/ml.

human TLR4 = target: T2, human TLR4 (Homo sapiens, UniProt O00206); assay: as above; conditions: PeptideX2 200 μg/mL, 16-20 hours
T2 construct: host or cells: HEK293
Protocol: as §1, §2

Staphylococcus aureus = assay: S. aureus growth (CFU) with human peripheral blood white cells
Protocol: (§3) Staphylococcus aureus bacteria were incubated with human peripheral blood white cells (WBC) in the absence or presence of PeptideX2 (0, 10, and 100 μg/ml), and the effects on S. aureus growth were assessed by serial dilutions, microbiological plating and determination by counting colony forming units (CFU) in culture samples withdrawn after incubation times of 0, 1.5 and 3 hours. The WBC-to-Staph ratio was 100:1, using WBC at 4×10^6/ml and Staph 4×10^4 CFU/ml.

E. coli = E. coli growth (CFU) with human peripheral blood leukocytes; conditions: E. coli with WBCs with PeptideX2, 10 hours
Protocol: Human peripheral blood leukocytes (WBCs) were obtained from healthy donors with informed consent. Three test groups were inoculated with E. coli and incubated for 10 hours. The three groups were E. coli with serum alone, E. coli with WBCs, and E. coli with WBCs with PeptideX2. Samples were taken at 0, 2, 4, 6 and 10 hours and plated for colony forming units (CFUs). […] In a separate but similar experiment, nine test groups (E. coli with serum alone, E. coli with WBCs, and E. coli with WBCs with PeptideX2 at each of seven indicated concentrations, see FIG. 12) were incubated over a time course of three hours, with quantification of bacterial CFU performed at times 0, 1.5 and 3 hours (FIG. 12).

peripheral blood cells = assay: Cytokine production by human peripheral blood cells (MSD panel)
Protocol: In order to examine the biological activity of IgX, cytokine production from human peripheral whole blood samples incubated with IgX was measured. Peripheral whole blood samples from three different donors (#66, 67, and 85) were obtained with appropriate informed consent and incubated with concentrations of IgX ranging from 0 to 200 ug/ml.
Protein A purified IgX was prepared from placental sample BC, brought to 0.05 M phosphate, 0.15 M NaCl buffer, pH 7.4, treated with an endotoxin affinity column (ActiClean Etox™ from Sterogene, Carlsbad, Calif.) according to the supplier's instructions, and then sent to IBT Bioservices (Gaithersburg, Md.) for human peripheral blood testing. […] All peripheral blood cells were suspended in RPMI-1640 media. Various concentrations of IgX were incubated with peripheral blood cells from donor D66 for 18 hours, and then the samples were stimulated with 1 ug/ml of PHA, 50 ng/ml of LPS, or 10 ng/ml of IFNγ (200 U/ml) for four hours. Samples of culture supernatant fluids were tested in duplicate for the presence of IL-2, IL-4, IL-6, IL-10, IL-12, and TNFα using a Meso Scale Discovery (MSD, Gaithersburg, Md.) panel.
PeptideX1 and PeptideX2 were incubated with peripheral blood cells from donor D67 as described above and tested in duplicate for IL-6 activity. […]

[1] = tested on: human peripheral blood white cells (WBC); assay: TNFα production by WBC during short-term incubation with S. aureus (ELISA); conditions: for TNFα concentration: 3-hour culture
Protocol: as §3, with “CFU/ml. Supernatant fluids from the same experimental cultures were also tested for TNFα production by WBC during the short-term incubations with S. aureus. […] In this three-hour timeframe, however, the presence of PeptideX2 at these concentrations had no effect on WBC bacteriocidal activity against S. aureus.” for “CFU/ml.”

[2] = tested on: murine TLR3, 5, 7, 8 or 9; assay: NF-κB-driven SEAP reporter assay in TLR-transfected HEK293 cells; conditions: PeptideX2 200 μg/mL
Protocol: as §1
(§4) PeptideX2 (200 μg/mL) was also tested for its effects on murine TLR-driven NE-κB activation in HEK293 cell lines transfected with murine TLR2, 3, 4, 5, 7, 8 or 9 (InvivoGen, San Diego, Calif.) essentially as described above.

murine TLR4 = target: T3, murine TLR4 (Mus musculus, UniProt Q9QUK6); assay: as above; conditions: PeptideX2 200 μg/mL
T3 construct: host or cells: HEK293
T3 sequence (Q9QUK6 26-835): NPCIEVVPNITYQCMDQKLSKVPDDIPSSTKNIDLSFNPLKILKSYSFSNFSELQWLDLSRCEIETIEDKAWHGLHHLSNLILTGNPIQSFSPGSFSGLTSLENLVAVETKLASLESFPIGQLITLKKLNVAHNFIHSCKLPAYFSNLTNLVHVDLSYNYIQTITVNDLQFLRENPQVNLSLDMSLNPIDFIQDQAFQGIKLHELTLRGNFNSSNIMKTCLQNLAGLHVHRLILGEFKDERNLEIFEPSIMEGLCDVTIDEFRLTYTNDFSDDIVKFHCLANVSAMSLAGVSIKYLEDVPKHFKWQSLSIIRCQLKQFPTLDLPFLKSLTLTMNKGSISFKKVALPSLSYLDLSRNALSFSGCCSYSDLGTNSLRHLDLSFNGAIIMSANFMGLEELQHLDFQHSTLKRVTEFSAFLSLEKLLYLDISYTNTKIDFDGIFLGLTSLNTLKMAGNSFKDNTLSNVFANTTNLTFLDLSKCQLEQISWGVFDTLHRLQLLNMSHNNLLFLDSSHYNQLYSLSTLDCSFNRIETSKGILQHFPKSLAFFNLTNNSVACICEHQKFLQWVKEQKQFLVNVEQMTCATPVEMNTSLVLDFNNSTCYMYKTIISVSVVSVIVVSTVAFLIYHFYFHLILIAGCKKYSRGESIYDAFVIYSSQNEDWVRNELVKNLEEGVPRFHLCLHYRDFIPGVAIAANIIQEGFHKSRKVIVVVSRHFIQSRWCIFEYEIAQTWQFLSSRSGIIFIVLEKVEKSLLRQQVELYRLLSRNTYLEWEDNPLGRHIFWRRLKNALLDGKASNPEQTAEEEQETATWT
T3 sequence (Q9JHF9 19-160 partner): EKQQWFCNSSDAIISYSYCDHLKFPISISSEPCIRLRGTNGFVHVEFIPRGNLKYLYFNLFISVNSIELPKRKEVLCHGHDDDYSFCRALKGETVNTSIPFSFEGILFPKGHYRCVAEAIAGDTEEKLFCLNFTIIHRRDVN
Protocol: as §1, §4

murine TLR2 = target: T4, murine TLR2 (Mus musculus, UniProt Q9QUN7); assay: as above; conditions: PeptideX2 200 μg/mL
T4 construct: host or cells: HEK293
Protocol: as §1, §4

T1 sequence (O60603 21-784): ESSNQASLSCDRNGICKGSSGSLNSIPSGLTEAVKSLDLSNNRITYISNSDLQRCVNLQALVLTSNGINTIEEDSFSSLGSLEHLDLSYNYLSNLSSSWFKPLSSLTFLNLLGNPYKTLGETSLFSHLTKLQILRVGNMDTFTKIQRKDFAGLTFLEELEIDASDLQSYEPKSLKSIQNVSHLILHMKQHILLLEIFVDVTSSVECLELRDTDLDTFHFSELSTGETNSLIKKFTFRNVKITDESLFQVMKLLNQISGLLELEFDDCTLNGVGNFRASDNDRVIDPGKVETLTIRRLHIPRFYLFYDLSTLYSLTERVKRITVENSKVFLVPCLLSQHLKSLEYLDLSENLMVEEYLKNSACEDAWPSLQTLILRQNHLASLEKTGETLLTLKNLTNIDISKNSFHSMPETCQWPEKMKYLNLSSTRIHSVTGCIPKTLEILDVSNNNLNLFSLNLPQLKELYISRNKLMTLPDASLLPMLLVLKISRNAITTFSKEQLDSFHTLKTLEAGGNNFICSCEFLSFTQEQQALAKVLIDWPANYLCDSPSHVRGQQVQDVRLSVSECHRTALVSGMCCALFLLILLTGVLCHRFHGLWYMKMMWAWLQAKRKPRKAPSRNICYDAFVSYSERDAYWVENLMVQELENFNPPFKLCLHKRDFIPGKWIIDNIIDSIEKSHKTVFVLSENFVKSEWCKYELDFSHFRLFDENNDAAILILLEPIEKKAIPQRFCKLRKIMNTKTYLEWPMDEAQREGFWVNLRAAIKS
T4 sequence (Q9QUN7 25-784): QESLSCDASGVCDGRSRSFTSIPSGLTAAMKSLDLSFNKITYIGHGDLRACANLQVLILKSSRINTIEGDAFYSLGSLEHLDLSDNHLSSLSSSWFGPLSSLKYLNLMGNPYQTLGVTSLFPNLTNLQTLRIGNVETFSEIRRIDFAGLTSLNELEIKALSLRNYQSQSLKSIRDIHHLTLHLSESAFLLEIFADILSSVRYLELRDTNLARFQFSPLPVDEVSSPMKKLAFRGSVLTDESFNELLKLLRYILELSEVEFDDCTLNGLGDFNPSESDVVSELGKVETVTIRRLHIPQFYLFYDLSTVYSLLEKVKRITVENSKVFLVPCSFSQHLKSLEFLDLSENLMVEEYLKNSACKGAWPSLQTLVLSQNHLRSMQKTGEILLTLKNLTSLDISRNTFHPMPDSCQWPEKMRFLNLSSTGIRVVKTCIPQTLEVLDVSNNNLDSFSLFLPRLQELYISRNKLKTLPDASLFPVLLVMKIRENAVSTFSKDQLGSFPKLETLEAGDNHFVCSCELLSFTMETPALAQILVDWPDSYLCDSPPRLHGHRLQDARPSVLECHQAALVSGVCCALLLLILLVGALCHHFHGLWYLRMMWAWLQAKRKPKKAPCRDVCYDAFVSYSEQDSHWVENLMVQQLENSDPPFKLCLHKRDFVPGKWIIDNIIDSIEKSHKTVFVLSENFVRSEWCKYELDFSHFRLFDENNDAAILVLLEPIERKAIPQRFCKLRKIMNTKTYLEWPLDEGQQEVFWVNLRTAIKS
T2 sequence (O00206 24-839): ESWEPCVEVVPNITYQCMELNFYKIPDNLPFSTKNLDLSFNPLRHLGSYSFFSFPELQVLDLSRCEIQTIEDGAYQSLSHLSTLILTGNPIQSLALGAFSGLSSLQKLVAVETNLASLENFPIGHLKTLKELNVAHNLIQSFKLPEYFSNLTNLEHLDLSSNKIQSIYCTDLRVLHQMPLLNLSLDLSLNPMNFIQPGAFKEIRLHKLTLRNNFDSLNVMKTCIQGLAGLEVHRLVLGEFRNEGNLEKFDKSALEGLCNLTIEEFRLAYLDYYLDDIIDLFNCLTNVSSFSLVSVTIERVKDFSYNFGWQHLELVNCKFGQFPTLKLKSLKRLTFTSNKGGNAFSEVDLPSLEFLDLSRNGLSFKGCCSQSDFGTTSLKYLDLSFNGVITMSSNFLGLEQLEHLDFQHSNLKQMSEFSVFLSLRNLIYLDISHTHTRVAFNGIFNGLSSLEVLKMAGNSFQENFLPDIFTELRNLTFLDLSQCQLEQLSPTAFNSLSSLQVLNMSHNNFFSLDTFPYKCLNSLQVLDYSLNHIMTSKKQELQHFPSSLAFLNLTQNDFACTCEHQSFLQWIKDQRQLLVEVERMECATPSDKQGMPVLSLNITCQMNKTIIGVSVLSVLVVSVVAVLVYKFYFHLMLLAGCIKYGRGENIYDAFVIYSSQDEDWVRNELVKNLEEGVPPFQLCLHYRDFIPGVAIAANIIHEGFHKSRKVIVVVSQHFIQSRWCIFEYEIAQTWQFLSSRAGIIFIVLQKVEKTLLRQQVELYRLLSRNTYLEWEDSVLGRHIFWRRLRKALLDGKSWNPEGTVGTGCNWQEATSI
T2 sequence (Q9Y6Y9 17-160 partner limits assumed): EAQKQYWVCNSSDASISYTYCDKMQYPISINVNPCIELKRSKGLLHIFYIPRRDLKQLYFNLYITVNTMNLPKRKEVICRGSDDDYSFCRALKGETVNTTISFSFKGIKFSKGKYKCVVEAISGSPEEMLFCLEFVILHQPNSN

## KSIAYLQMNSLK (Peptide fragment) [PeptideX2, dodecapeptide derived from the heavy chain hypervariable region of IgX, residues 97-108 of AAH90938.1]
Human TLR2; PeptideX2 200 μg/mL vs HKLM at 10^8 cells/ml
  TLR2-mediated response as level of the response to HKLM: 14%
Human TLR2; PeptideX2 200 μg/mL, 16-20 hours
  NF-κB activation via TLR2: activation of NF-κB via TLR2 and TLR4
Human TLR4
  NF-κB activation via TLR4: activation of NF-κB via TLR2 and TLR4
Staphylococcus aureus; PeptideX2 10 and 100 ug/ml, three-hour timeframe
  effect on WBC bacteriocidal activity against S. aureus: no effect
Staphylococcus aureus; WBC present, up to three hours, presence or absence of PeptideX2 (0, 10, 100 μg/ml)
  S. aureus growth: no S. aureus growth was detected
E. coli
  E. coli CFUs: rapid rise in CFUs
Peripheral blood cells; cells from donor #67, compared to peptideX1
  IL-6 production: significantly greater IL-6 production compared to peptideX1
Peripheral blood cells; cells from donor #85, PeptideX2 0, 10, 100 or 200 ug/ml
  IL-6 production: enhanced production
[1]; 100 ug/ml PeptideX2, 3-hour timepoint
  reduction in TNFα production: 65%
[1]; WBC plus PeptideX2 at 10 ug/ml
  TNFα concentration: 160 pg/mL
[1]; WBC plus PeptideX2 at 100 ug/ml
  TNFα concentration: 76 pg/mL
[1]; serum plus PeptideX2 at 100 ug/ml (no WBC)
  TNFα concentration: 0.05 pg/mL
[1]; PeptideX2 at 10 ug/ml, 3-hour timepoint
  reduction in TNFα production: 27%
[2]
  NF-κB-driven SEAP expression through the other murine TLRs tested: not through the other TLRs tested
Murine TLR4
  NF-κB-driven SEAP expression through murine TLR4: induction
  potency via murine TLR4 relative to murine TLR2: greater potency in activating via murine TLR4 relative to murine TLR2
Murine TLR2
  NF-κB-driven SEAP expression through murine TLR2: induction
